Measured values taken from ChEMBL document CHEMBL5608235, “Tricyclic Benzo[1,3]oxazinyloxazolidinones as Potent Antibacterial Agents against Drug-Resistant Pathogens” (J Med Chem, 2024).
≈ marks a conversion by molar mass, not a printed value. Calls of active or inactive are those of the source. The rule behind the calls is not given here.

Columns and labels:
[1] = Cytotoxicity against African green monkey Vero cells incubated for 48 hrs by MTT assay; assay type: toxicity, cell-based, Chlorocebus sabaeus
[2] = test system: Staphylococcus aureus; assay: Antibacterial activity against methicillin resistant Staphylococcus aureus clinical isolate 20-2 assessed as inhibition of bacterial growth incubated for 7 days by alamar blue assay; assay type: functional; details: clinical isolate 20-2, 168 h, time 7 day
[3] = test system: Staphylococcus aureus; assay: Antibacterial activity against vancomycin intermediate Staphylococcus aureus ATCC700699 assessed as inhibition of bacterial growth incubated for 7 days by alamar blue assay; assay type: functional; details: ATCC700699, 168 h, time 7 day
[4] = test system: Enterococcus; assay: Antibacterial activity against vancomycin resistant Enterococcus clinical isolate 20-1 assessed as inhibition of bacterial growth incubated for 7 days by alamar blue assay; assay type: functional; details: clinical isolate 20-1, 168 h, time 7 day
[5] = test system: Staphylococcus aureus; assay: Antibacterial activity against Linezolid resistant Staphylococcus aureus clinical isolate 20-1 assessed as inhibition of bacterial growth incubated for 7 days by alamar blue assay; assay type: functional; details: clinical isolate 20-1, 168 h, time 7 day
[6] = test system: Staphylococcus aureus; assay: Antibacterial activity against Linezolid resistant Staphylococcus aureus clinical isolate 20-2 assessed as inhibition of bacterial growth incubated for 7 days by alamar blue assay; assay type: functional; details: clinical isolate 20-2, 168 h, time 7 day
[7] = Metabolic stability in ICR mouse liver microsomes assessed as substrate remaining at 10 uM incubated for 60 mins in presence of NADPH by LC-MS/MS analysis; assay type: ADME, Microsome; details: read-out: Stability
[8] = Metabolic stability in human liver microsomes assessed as substrate remaining at 10 uM incubated for 60 mins in presence of NADPH by LC-MS/MS analysis; assay type: ADME, Microsome; details: read-out: Stability
[9] = Terminal half life in BALB/c mouse at 1 mg/kg,iv administration measured upto 24 hrs by LC-MS/MS analysis; assay type: ADME, organism-based; details: in vivo, read-out: beta t1/2 (converted)
[10] = AUC (0 to t) in BALB/c mouse at 1 mg/kg,iv administration measured upto 24 hrs by LC-MS/MS analysis; assay type: ADME, organism-based; details: in vivo
[11] = AUC (0 to infinity) in BALB/c mouse at 1 mg/kg,iv administration measured upto 24 hrs by LC-MS/MS analysis; assay type: ADME, organism-based; details: BALB/c, in vivo
[12] = MRT (0 to t) in BALB/c mouse at 1 mg/kg,iv administration measured upto 24 hrs by LC-MS/MS analysis; assay type: ADME, organism-based; details: in vivo
[13] = Volume of distribution in BALB/c mouse at 1 mg/kg,iv administration measured upto 24 hrs by LC-MS/MS analysis; assay type: ADME, organism-based; details: in vivo
[14] = Oral bioavailability in BALB/c mouse at 10 mg/kg administration measured upto 24 hrs by LC-MS/MS analysis; assay type: ADME, organism-based; details: BALB/c, in vivo
[15] = Tmax in BALB/c mouse at 10 mg/kg,po administration measured upto 24 hrs by LC-MS/MS analysis; assay type: ADME, organism-based; details: in vivo
[16] = test system: Staphylococcus aureus; assay: Antibacterial activity against Linezolid resistant Staphylococcus aureus assessed as inhibition of bacterial growth incubated for 7 days by alamar blue assay; assay type: functional; details: 168 h, time 7 day
[17] = test system: Staphylococcus aureus; assay: Antibacterial activity against daptomycin/methicillin resistant Staphylococcus aureus assessed as inhibition of bacterial growth incubated for 7 days by alamar blue assay; assay type: functional; details: 168 h, time 7 day
[18] = Drug concentration in BALB/c mouse plasma at 10 mg/kg,po administration measured within 15 mins by LC-MS/MS analysis; assay type: ADME, organism-based
[19] = test system: Staphylococcus aureus; assay: Antibacterial activity against methicillin resistant Staphylococcus aureus ATCC 33592 infected in cyclophosphamide-induced immunosuppressed Kunming mouse by measuring survival rate of mouse at 25 mg/kg,po administration measured for 7 days; assay type: functional; details: ATCC 33592, 168 h, time 7 day
[20] = test system: Staphylococcus aureus; assay: Antibacterial activity against methicillin resistant Staphylococcus aureus ATCC 33592 infected in cyclophosphamide-induced immunosuppressed Kunming mouse assessed as reduction of bacterial load in liver at 10 to 50 mg/kg,po administration measured after 24 hrs by hematoxylin and eosin staining based microscopy; assay type: functional, organism-based; details: dose 10-50 mg/kg
[21] = test system: Staphylococcus aureus; assay: Antibacterial activity against methicillin resistant Staphylococcus aureus ATCC 33592 infected in cyclophosphamide-induced immunosuppressed Kunming mouse assessed as increase in lymphocytes at 25 to 50 mg/kg,po administration measured after 7 days by Giemsa staining based analysis; assay type: functional, organism-based; details: dose 25-50 mg/kg, time 7.0 day
[22] = test system: Staphylococcus aureus; assay: Antibacterial activity against methicillin resistant Staphylococcus aureus ATCC 33592 infected in cyclophosphamide-induced immunosuppressed Kunming mouse assessed as reduction in histopathological change in heart at 10 to 50 mg/kg,po administration measured after 24 hrs by hematoxylin and eosin staining based microscopy; assay type: functional, organism-based; details: dose 10-50 mg/kg
[23] = test system: Staphylococcus aureus; assay: Antibacterial activity against methicillin resistant Staphylococcus aureus ATCC 33592 infected in cyclophosphamide-induced immunosuppressed Kunming mouse assessed as reduction in histopathological change in spleen at 50 mg/kg,po administration measured after 24 hrs by hematoxylin and eosin staining based microscopy; assay type: functional, organism-based
[24] = test system: Staphylococcus aureus; assay: Antibacterial activity against methicillin resistant Staphylococcus aureus ATCC 33592 infected in cyclophosphamide-induced immunosuppressed Kunming mouse assessed as reduction in congestion in spleen at 50 mg/kg,po administration measured after 24 hrs by hematoxylin and eosin staining based microscopy; assay type: functional, organism-based
[25] = test system: Staphylococcus aureus; assay: Antibacterial activity against methicillin resistant Staphylococcus aureus ATCC 33592 infected in cyclophosphamide-induced immunosuppressed Kunming mouse assessed as reduction in pigment deposition in spleen at 50 mg/kg,po administration measured after 24 hrs by hematoxylin and eosin staining based microscopy; assay type: functional, organism-based
[26] = test system: Staphylococcus aureus; assay: Antibacterial activity against methicillin resistant Staphylococcus aureus ATCC 33592 infected in cyclophosphamide-induced immunosuppressed Kunming mouse assessed as reduction in congestion in spleen at 10 mg/kg,po administration measured after 24 hrs by hematoxylin and eosin staining based microscopy; assay type: functional, organism-based
[27] = test system: Staphylococcus aureus; assay: Antibacterial activity against methicillin resistant Staphylococcus aureus ATCC 33592 infected in cyclophosphamide-induced immunosuppressed Kunming mouse assessed as reduction in pigment deposition in spleen at 10 mg/kg,po administration measured after 24 hrs by hematoxylin and eosin staining based microscopy; assay type: functional, organism-based
[28] = test system: Staphylococcus aureus; assay: Antibacterial activity against methicillin resistant Staphylococcus aureus ATCC 33592 infected in cyclophosphamide-induced immunosuppressed Kunming mouse assessed as appearance of inflated alveoli in lung at 50 mg/kg,po administration measured after 24 hrs by hematoxylin and eosin staining based microscopy; assay type: functional, organism-based
[29] = test system: Cell membrane; assay: Disruption of cell membrane integrity in methicillin resistant Staphylococcus aureus ATCC 33592 assessed as increase in blue fluorescence at 0.5 ug/ml incubated for 1 hr by […] and propidium iodide double staining based confocal microscopic analysis; assay type: cell membranes; details: dose 0.5 µg/ml
[30] = test system: Cell membrane; assay: Disruption of cell membrane integrity in Staphylococcus aureus ATCC 25923 assessed as increase in red fluorescence at 0.5 ug/ml incubated for 1 hr by […] and propidium iodide double staining based confocal microscopic analysis; assay type: cell membranes; details: dose 0.5 µg/ml
[31] = test system: Cell membrane; assay: Disruption of cell membrane integrity in methicillin resistant Staphylococcus aureus ATCC 33592 assessed as increase in red fluorescence at 1 ug/ml incubated for 1 hr by […] and propidium iodide double staining based confocal microscopic analysis; assay type: cell membranes; details: dose 1.0 µg/ml
[32] = test system: Cell membrane; assay: Disruption of cell membrane in methicillin resistant Staphylococcus aureus ATCC 33592 assessed as damage in bacterial cell envelope at 0.5 ug/ml incubated for 30 mins by Scanning electron microscopic analysis; assay type: cell membranes; details: dose 0.5 µg/ml
[33] = test system: Cell membrane; assay: Disruption of cell membrane in methicillin resistant Staphylococcus aureus ATCC 33592 assessed as change in morphology at 0.5 ug/ml incubated for 30 mins by Scanning electron microscopic analysis; assay type: cell membranes; details: dose 0.5 µg/ml

CC(=O)NC[C@@H]1OC(=O)N2Cc3cc(-c4ccc(C#N)cc4)c(F)cc3O[C@@H]12
IC50 at 48 h [1]: 35 µg/mL (≈ 91.8 µM) | MIC [2]: 0.5 µg/mL (≈ 1.31 µM) | MIC [3]: 0.5 µg/mL (≈ 1.31 µM) | MIC [4]: 0.5 µg/mL (≈ 1.31 µM) | MIC [5]: 8 µg/mL (≈ 21 µM) | MIC [6]: 8 µg/mL (≈ 21 µM) | remaining at 1 h, 10 µM [7]: 100% | remaining at 1 h, 10 µM [8]: 116% | half-life [9]: 7.9 h | AUC(0-t) at 24 h [10]: 5120 ng·h/mL | AUC(0-inf) [11]: 5130 ng·h/mL | MRT last at 24 h [12]: 6.6 h | Vd [13]: 1.94 L/kg | bioavailability [14]: 122% | Tmax [15]: 2 h | MIC [16]: 2 µg/mL (≈ 5.24 µM) | MIC [17]: 1 µg/mL (≈ 2.62 µM) | concentration at 0.25 h [18]: 1000 ng/mL | survival at 25 mg/kg [19]: 100% | Activity [20]: Active | Activity [21]: Active | Activity [22]: Active | Activity [23]: Active | Activity [24]: Active | Activity [25]: Active | Activity [26]: Active | Activity [27]: Active | Activity [28]: Active | Activity [29]: Active | Activity [30]: Active | Activity [31]: Active | Activity [32]: Active | Activity [33]: Active
